Data: the supplement of paper PMC13380429

How the values were obtained:
Conditions in all cases: 72 h
[1] = test system: U2OS; experiment: drug sensitivity score (DSS) for viability; higher = more toxic; extreme values may be limits of the assay
[2] = test system: Caco-2; experiment: as above
[3] = test system: Vero E6; experiment: as above
[4] = test system: HepG2; experiment: as above
[5] = test system: Calu-3; experiment: as above
[6] = test system: U2OS; experiment: relative viability EC50 (midpoint between 100% and the lowest measured viability); higher = less toxic
[7] = test system: Caco-2; experiment: as above
[8] = test system: Vero E6; experiment: as above
[9] = test system: HepG2; experiment: as above
[10] = test system: Calu-3; experiment: as above
[11] = test system: U2OS; experiment: cell viability relative to DMSO; higher = less toxic
[12] = test system: Caco-2; experiment: as above
[13] = test system: Vero E6; experiment: as above
[14] = test system: HepG2; experiment: as above
[15] = test system: Calu-3; experiment: as above

| Compound | drug sensitivity score [1] | drug sensitivity score [2] | drug sensitivity score [3] | drug sensitivity score [4] | drug sensitivity score [5] | relative viability EC50 [6] [µM] | relative viability EC50 [7] [µM] | relative viability EC50 [8] [µM] | relative viability EC50 [9] [µM] | relative viability EC50 [10] [µM] | cell viability ([11]; 1 nM) [%] | cell viability ([11]; 10 nM) [%] | cell viability ([11]; 100 nM) [%] | cell viability ([11]; 1000 nM) [%] | cell viability ([11]; 10000 nM) [%] | cell viability ([12]; 1 nM) [%] | cell viability ([12]; 10 nM) [%] | cell viability ([12]; 100 nM) [%] | cell viability ([12]; 1000 nM) [%] | cell viability ([12]; 10000 nM) [%] | cell viability ([13]; 1 nM) [%] | cell viability ([13]; 10 nM) [%] | cell viability ([13]; 100 nM) [%] | cell viability ([13]; 1000 nM) [%] | cell viability ([13]; 10000 nM) [%] | cell viability ([14]; 1 nM) [%] | cell viability ([14]; 10 nM) [%] | cell viability ([14]; 100 nM) [%] | cell viability ([14]; 1000 nM) [%] | cell viability ([14]; 10000 nM) [%] | cell viability ([15]; 1 nM) [%] | cell viability ([15]; 10 nM) [%] | cell viability ([15]; 100 nM) [%] | cell viability ([15]; 1000 nM) [%] | cell viability ([15]; 10000 nM) [%] |
| --- | --- | --- | --- | --- | --- | --- | --- | --- | --- | --- | --- | --- | --- | --- | --- | --- | --- | --- | --- | --- | --- | --- | --- | --- | --- | --- | --- | --- | --- | --- | --- | --- | --- | --- | --- |
| C/C(=N\NC(=O)C(NC(=O)c1ccccc1)c1n[nH]c(=O)c2ccccc12)c1cccc(Br)c1 (stereo not given) | 0 | 0 | 0 | 0 | 0 | > 10 | > 10 | > 10 | > 10 | > 10 | 99.5 | 97 | 100 | 102 | 100 | 101 | 102 | 106 | 95.8 | 100 | 88.3 | 97.9 | 97.4 | 100 | 104 | 97.7 | 94.2 | 98.1 | 95.4 | 106 | 95.7 | 113 | 100 | 107 | 108 |
| C[C@@H]1c2ccccc2CN1CC1=NCCN1 (racemic) | 0 | 0 | 0 | 0 | 0 | > 10 | > 10 | > 10 | > 10 | > 10 | 97.4 | 94.8 | 101 | 96.3 | 104 | 100 | 92.4 | 89.9 | 100 | 121 | 95.9 | 97.8 | 95.4 | 92.9 | 102 | 100 | 86.9 | 109 | 116 | 116 | 107 | 96.5 | 102 | 108 | 114 |
| O=C(OCCOCCO)c1ccccc1Nc1cccc(C(F)(F)F)c1 [etofenamate] | 0 | 0 | 1.5 | 0 | 0.1 | > 10 | > 10 | > 10 | > 10 | > 10 | 102 | 95.2 | 98.7 | 100 | 96.3 | 98.1 | 91 | 92.4 | 90.8 | 96.1 | 100 | 103 | 103 | 89.3 | 81.7 | 96.2 | 105 | 92.4 | 101 | 104 | 108 | 95.6 | 95.8 | 82.5 | 96.3 |
| CC(C)(Sc1ccncc1-c1ccc(C#N)c2ccccc12)C(=O)O [verinurad] | 0 | 0 | 0 | 0 | 0 | > 10 | > 10 | > 10 | > 10 | > 10 | 103 | 99.5 | 96.8 | 99.8 | 103 | 97.6 | 93.2 | 101 | 95 | 101 | 95.3 | 101 | 91.9 | 99.4 | 106 | 103 | 99.8 | 93.3 | 105 | 122 | 106 | 93.7 | 90.9 | 113 | 96.8 |
| CN1C(C)(C)CCCC1(C)C [pempidine] |  | 0 | 0 | 0.1 | 0 |  | > 10 | > 10 | > 10 | > 10 |  |  |  |  |  | 102 | 89.1 | 95.1 | 99.5 | 109 | 97.4 | 100 | 95.1 | 95.7 | 94.4 | 96 | 103 | 98.1 | 105 | 84.7 | 114 | 105 | 98.3 | 107 | 110 |
| C=CC[N@@+]12CC[C@@]34c5ccccc5N5/C=C6/[C@H]7C[C@H]8[C@@]9(CC[N@@+]8(CC=C)C/C7=C/CO)c7ccccc7N(/C=C(/[C@@H](C[C@@H]31)/C(=C\CO)C2)[C@H]54)[C@@H]69 [alcuronium] | 0 | 0 |  | 0 | 1 | > 10 | > 10 |  | > 10 | > 10 | 102 | 99 | 101 | 99.7 | 103 | 94.9 | 99.9 | 99.4 | 102 | 107 |  |  |  |  |  | 106 | 107 | 98.2 | 102 | 103 | 97.8 | 103 | 91.2 | 90.8 | 87.8 |
| CCC(NC(C)C)C(O)c1ccc(O)c2[nH]c(=O)ccc12 (stereo not given) [procaterol] | 0 | 0 |  | 0 | 0 | > 10 | > 10 |  | > 10 | > 10 | 101 | 105 | 96 | 104 | 101 | 84.2 | 107 | 89.9 | 99.6 | 92.8 |  |  |  |  |  | 110 | 93.9 | 103 | 97.4 | 95.4 | 92.1 | 104 | 105 | 110 | 95.9 |
| CCCCCN(C)CCC(O)(P(=O)(O)O)P(=O)(O)O [ibandronate] |  | 0 |  | 0 | 0 |  | > 10 |  | > 10 | > 10 |  |  |  |  |  | 97 | 111 | 106 | 106 | 94.5 |  |  |  |  |  | 111 | 98 | 112 | 106 | 117 | 96.4 | 111 | 96 | 106 | 107 |
